Values of other authors in patent publication US20260185050A1, “BIOLOGIC INTERFACIAL TISSUE-ENGINEERED SYSTEMS USEFUL AS ARTHROPOD BITEMODEL” (UNIVERSITY OF CENTRAL FLORIDA RESEARCH FOUNDATION, INC., priority 2022, published 2026).

Tests used:
[1] = C5 epimers of alginate
Aedes aegypti = conditions: selective dose response work, males and females
Aedes albopictus = conditions: selective dose response work, males and females
Culex pipiens = conditions: select experiments

SMILES | pKa [1] | kill performance versus erythritol (Aedes aegypti) | kill performance versus erythritol (Aedes albopictus) | kill performance versus erythritol (Culex pipiens)
O=C(O)[C@H]1O[C@@H](O)[C@@H](O)[C@@H](O)[C@@H]1O [M, β-D-mannuronate] | 3.38 | – | – | –
CC(O)CO (centres unmarked) [propylene glycol] | – | outperform erythritol | outperform erythritol | outperform erythritol
O=C(O)[C@@H]1O[C@@H](O)[C@@H](O)[C@@H](O)[C@@H]1O [G, α-L-guluronate] | 3.65 | – | – | –
